Here are results for five compounds from patent US20060281806A1, “Treatment and inhibition of disease conditions using flexible heteroarotinoids” (priority 2005, published 2006).

Data set [1] relates to OVCAR-3 xenograft tumors. Description: OVCAR-3 xenograft tumor animal model, tumor growth. The format is in vivo, mouse. To be noted: 10 mg/kg/day by gavage, 5 days/week, 4 weeks; t-test on day 29. As for the experimental part: Groups of 5 mice bearing OVCAR-3 xenografted tumors were gavaged daily with the indicated drugs in sesame oil (▪ closed square) or with sesame oil alone (∘ open circle). Tumor volumes were measured in 3 dimensions with calipers weekly. Each data point represents the average and standard error of the tumor volumes on the indicated treatment day relative to the tumor volume on day zero. Nu/nu mice were injected subcutaneously with one million OVCAR-3 cells and arbitrarily divided into five groups of six mice each. After three weeks of tumor growth, the animals were gavaged with sesame oil, 10 mg/kg/day 4-HPR, or the indicated Het five times per week for four weeks and the tumors were measured once per week. The tumor sizes were averaged and divided by the average size for each group on the day that treatment was initiated (day 0).
The OVCAR-3 cultures were maintained in RPMI media supplemented with 10% fetal bovine serum. All animal experimentation described in this manuscript was conducted in accord with accepted standards of humane animal care. Twenty-five female NU/NU CD-1 female mice (Charles Rivers Laboratories) were housed in a laminar flow room under sterile conditions at 83-85° F. The mice were quarantined for one week prior to the beginning of the study and were allowed access to autoclaved food (Purina 5001 mouse/rat sterilizable diet, St. Louis, Mo.) and water ad libitum. OVCAR-3 cells in log phase growth were harvested by trypsinization, resuspended in RPMI culture medium, and centrifuged at 3,000 rpm for 10 min. The pellets were resuspended in RPMI culture medium at a concentration of 7×10^6 cells/ml before implantation into mice. Animals were injected with 3.5×10^6 cells into the right scapular region with a 24-gauge needle/1 cc tuberculin syringe. Twenty-four hours after tumor implantation, animals were randomized into 5 groups of 5 animals each.
The Hets SHet50, SHetA2 and SHetA4 were synthesized and their receptor specificity determined as previously described (17,19). The 4-HPR compound was a gift from R.W. Johnson Pharmaceutical Research Institute, Raritan, N.J. All retinoids were dissolved in super refined sesame oil (Croda, Inc., Parsippany, N.J.) and stored at −80° C. Since the retinoids are light sensitive, all manipulations involving retinoids were performed under subdued lighting. […] Tumors were measured with calipers weekly, and tumor volumes were calculated using the formula: volume=length×width×height. Tumor growth was determined by the dividing the volume of the tumor at each weekly measurement by the volume on the first day of treatment. Animal weights and clinical signs of overall health status and cutaneous toxicities were recorded weekly.

The nature of data set [2]: Alanine aminotransferase (ALT) activity in plasma of mice. The format is in vivo, mouse. To be noted: end of treatment, 10 mg/kg/day by gavage. As for the experimental part:
At the end of the treatment period, blood was drawn from each animal. Plasma was separated by centrifugation and stored at −70° C. The activity of ALT was determined in aliquots of plasma by standard spectrophotometric enzymatic techniques which are based on the reduction of pyruvate by lactate dehydrogenase (28). The method measures NADH disappearance with time of incubation at 37° C. The activities are expressed as mm/L/min. Two different amounts of plasma were used in each assay to assure measurement of the maximum rate.

Data set [3] deals with ovarian carcinoma organotypic cultures. Description: Organotypic culture model of ovarian tumors. The class given is cell-based, human. As to conditions: 1 μM retinoid in media; 3, 7 or 14 days. As for the experimental part:
FIG. 17. Retinoid effects on ovarian carcinoma organotypic cultures. Organotypic cultures of OVCAR-3 (A, B, E, F, I and J), Caov-3 (C and G), SK-OV-3 (D and H), and O2 (K and L) were grown in the absence (−, top row and K) or presence (+, middle row and I, J and L) of retinoid HetA4 at a concentration of 1 μM in the media. All sections were stained with H&E except for I, which was stained with PAS to detect glycoproteins and glandular differentiantion, and J, which was stained with the TUNEL assay to detect apoptosis. All magnifications are 40×.
To test our hypotheses, we evaluated the effects of clinically achievable concentrations of 4-HPR and Flex-Hets on growth, differentiation and apoptosis in ovarian tissue. A series of compounds with a variety of receptor activation profiles were evaluated. In order to evaluate therapeutic effects, we developed an organotypic culture model of ovarian tumors by growing established cell lines and primary cultures inside collagen gels. Monolayer cultures of cells are not accurate representations of in vivo tissue because they lack the types of interactions that cells have with other cells and with the extracellular matrix in vivo. These interactions are known to influence gene expression and thus the constitution and behavior of cells. In our organotypic model, the growth of tumor cells inside the collagen allows a representation of tumors that have invaded stromal tissue. In the presence of fibroblasts, established cell lines and primary cultures of ovarian cancer formed colonies inside the collagen, while normal or benign ovarian epithelial cells remained as single cells inside the collagen. Human ovarian cancer cell lines (OVCAR-3, Caov-3, SK-OV-3, A2780, UCI 101) and primary human cultures (borderline ovarian tumor (O1), serous papillary tumor (O2), benign ovarian cyst (O3)) were cultured inside and on top of a collagen gel seeded with 3T3 fibroblasts for one week. After further incubation in the presence or absence of 1 μM retinoid (media concentration) for 3, 7 or 14 days, cultures were fixed and sectioned for immunohistochemical analysis.

For data set [4] the following is noted: women after breast cancer surgery; 200 mg per day for five years versus placebo; cited from earlier work.
For data set [5], the system named is a variety of cell lines. To be noted: cited from earlier work.
Data set [6] relates to SiHa human cervical cell line. The experiment in a line: In vitro cytotoxicity (SRB growth inhibition) assay, SiHa. The class given is cell-based. Further details: dose or concentration left out as unconfirmed. As to conditions: 72 h. As for the experimental part: (§1) The SHetA2, SHetA3, SHetA4, SHet50 and 9-cis-RA compounds were evaluated in 4 cervical carcinoma cell lines. The SiHa, CC-1 and C33a human cervical cell lines were maintained in Minimal Essential Media (MEM) containing Earle's salts and L-glutamine supplemented with nonessential amino acids, 1% sodium pyruvate, 10% fetal bovine serum (FBS) and antibiotic/antimycotic. The HT-3 cervical carcinoma cell line was cultured in McCoy's 5a medium supplemented with 10% FBS and antibiotic/antimycotic. Cells were inoculated into 96 well microtiter plates at densities of 1000 cells/well and incubated for 24 h prior to addition of drugs. Drugs were dissolved in dimethyl sulfoxide (DMSO) and diluted in complete medium, prior to addition to triplicate culture wells to achieve final concentrations of […]. Following drug addition, the plates were incubated for 72 h. The assay was terminated by the addition of cold TCA and the cells were stained with 0.4% sulforhodamine B (SRB) in 1% acetic acid. Bound stain was subsequently solubilized with 10 mM trizma base, and the absorbance was read on an automated plate reader at a wavelength of 560 nm. Growth inhibition was determined by dividing the average Optical Density (OD) of the triplicated treated cultures by the average OD of the triplicate control cultures treated with DMSO solvent only. This ratio was converted into a percentage by multiplying by 100. The potency (concentration required to induce half of the maximal activity—GI50) were derived from dose-response graphs generated with results from 3 to 5 individual experiments using GraphPad Software.

The test system of data set [7] is CC-1 human cervical cell line. The experiment in a line: In vitro cytotoxicity (SRB growth inhibition) assay, CC-1. The class given is cell-based. Further details: dose or concentration left out as unconfirmed. As to conditions: 72 h. As for the experimental part:
as §1

The subject of data set [8] is C33a human cervical cell line. The experiment in a line: In vitro cytotoxicity (SRB growth inhibition) assay, C33a. The class given is cell-based. Further details: dose or concentration left out as unconfirmed. To be noted: 72 h. The protocol:
as §1

Data set [9] has as its system HT-3 cervical carcinoma cell line. Description: In vitro cytotoxicity (SRB growth inhibition) assay, HT-3. The format is cell-based, human. More on the design: dose or concentration left out as unconfirmed. To be noted: 72 h. The protocol:
as §1

For data set [10], the system named is Raldh2 −/− embryos. Description: Rescue of Raldh2 −/− embryos and teratogenesis. The class given is in vivo, mouse. The protocol:
Dosages varied from 0.025 to 25 mg/kg.

Data set [11] has as its system dorsal skin of female Skh hairless mice. Description: Topical irritancy. The class given is in vivo. As to conditions: mouse, in vivo. As for the experimental part:
Female Skh hairless mice, 6-8 weeks old, were treated topically on the dorsal skin for 4 days over a 2-log concentration dose range with various compounds. Retinoic acid receptor-Hets were evaluated in A, while retinoic acid receptor-independent Flex-Hets were evaluated in B. Daily flaking and abrasion scores were combined to calculate a single cutaneous toxicity score for each mouse. Each treatment group consisted of 4 mice, and group averages were used to plot cutaneous toxicity against doses of the compounds.
Topical irritancy was evaluated according to published procedures (29). Briefly, female Skh hairless mice, 6-8 weeks old, were treated topically on the dorsal skin for 4 days over a 2-log concentration dose range with various compounds. Daily flaking and abrasion scores were combined to calculate a single cutaneous toxicity score for each mouse. Each treatment group consists of 4 mice, and group averages are used to plot cutaneous toxicity against dose of the retinoid compound.

In data set [12] the test system is human polycystic kidney disease cells. Description: 3-D gel culture model of polycystic kidney disease. The class given is cell-based. As to conditions: 4μM, 3 weeks. The protocol:
FIG. 21. Effects of Flex-Hets on formation of cysts in cultured polycystic kidney disease cells. A primary culture of polycystic kidney cells were grown inside a mixture of collagen I and matrigel and treated with prostaglandin E2 to induce cyst formation. Parallel cultures were treated with 10 micromolar SHetA3 and SHetA4.
The 3-D model of the PKD was developed as described here. Single-cell suspensions of the PCKD cell lines was re-suspended in a 4° C. solution mixture containing rat tail collagen I (Collaborative Biomedical Products, Bedford, Mass.), matrigel (Becton Dickinson) and MEM. The suspension was poured into Falcon cell culture inserts with transparent membranes containing 0.4 μm pores (Becton Dickinson, Franklin Lakes, N.J.) and placed at 37° C. Treatment of cultures was initiated after 1 day of growth and replenished with medium once in every two days. Drugs (Flex-Hets at 4 μM Conc.) and hormones (PGE2 at 25 ng/ml) were administered into the medium surrounding the insert. Untreated control cultures were grown in the same conditions as that of the treated cultures. Drug treatment was carried out for 3 weeks before their effects on growth and inhibition were evaluated.

For data set [13] the following is noted: biological assays of efficacy; cited from earlier work.
The mark [14] stands for this setting: dose 2.5 mg/kg oral to pregnant mice, E10.25 embryos.
Where [15] appears, read: dose 10 mg/kg oral to pregnant mice, E10.25 embryos.

“Also recorded” adds a separate entry of the source.

Consider `CC1=C(/C=C/C(C)=C/C=C/C(C)=C/C(=O)Nc2ccc(O)cc2)C(C)(C)CCC1` [4-HPR, N-(4-hydroxyphenyl) retinamide], for which the “growth of xenograft tumors versus sesame oil control” value in [1] is reported as “significantly inhibited the growth; also recorded: significantly less”. Moreover, in data set [2], the “ALT Activity” value was 149.7 ± 140.9 mm/liter/min. Also, the “induction of apoptosis (TUNEL) in organotypic cultures” value (“induction of apoptosis (TUNEL)” below) in data set [3] was “Apoptosis was induced”. The ovarian cancers developed result in data set [4] is on record as “statistically significantly fewer ovarian cancers”. Besides, in data set [5], the “concentration inducing differentiation (receptor-dependent)” value was 1 µM.
Regarding `CC1=C(/C=C/C(C)=C\C=C\C(C)=C\C(=O)O)C(C)(C)CCC1` [9-cis-RA, 9-cis-retinoic acid], the “Efficacy: percent growth inhibition relative to the untreated control” value was 24% in [6], 28% in data set [7], 45% in [8] and 47% in data set [9]. Further, the “rescue of Raldh2 −/− embryos (phenotype)” value in [10] (2.5 mg/kg to pregnant mothers) is “partial rescue”. The “No. of −/− unrescued” value in data set [10] (setting [14]) turned out to be 8; in [10] (setting [15]), 1. For the same compound, the “Teratogenesis (no. of embryos)” value in data set [10] (setting [14]) and in data set [10] (setting [15]) was 0 each time. Moreover, the “No. of −/− rescued” value in [10] (setting [15]) was determined as 6. Further, the “induction of apoptosis (TUNEL)” value in data set [3] is “Apoptosis was induced”.
Take `COC(=O)c1ccc(C(=O)Nc2ccc3c(c2)C(C)(C)CC(C)(C)S3)cc1` [SHet50, reference compound]: the “Efficacy: percent growth inhibition relative to the untreated control” value was 35% in data set [6], 15% in [7], 67% in data set [8] and 47% in [9]. Moreover, the “growth of xenograft tumors versus sesame oil control” value in [1] is “significantly inhibited the growth; also recorded: significantly less”. The “ALT Activity” value in [2] was 65.5 ± 46.3 mm/liter/min. Moreover, in data set [3], the “induction of apoptosis (TUNEL)” value is reported as “Apoptosis was induced”.
For the compound `CCOC(=O)c1ccc(NC(=O)Nc2ccc3c(c2)C(C)(C)CC(C)(C)S3)cc1` [SHetA4], the “Efficacy: percent growth inhibition relative to the untreated control” value in data set [6] came out at 67%; in [7], 59%; in [8], 85%; in data set [9] it was 76%. For the same compound, the “growth of xenograft tumors versus sesame oil control” value in [1] is given as “significantly less”. Further, the “topical irritancy (cutaneous toxicity score)” value in data set [11] is on record as “did not induce topical irritancy”. Moreover, the “induction of apoptosis (TUNEL)” value in data set [3] is “Apoptosis was induced”. For the same compound, the “formation of branched tubular structures (differentiated phenotype)” value in [12] was “induced the formation of several branched tubular structures”. Moreover, the cyst formation result in [12] (PGE2 at 25 ng/ml) is “completely eliminated cyst formation”.
In the case of `C/C(=C\c1ccc(C(=O)O)cc1)c1ccc2c(c1)C(C)(C)CCC2(C)C` [TTNPB], in [13], the “potency relative to RA” value is 10 fold.
